Patent publication US20240050420A1, “NANOMEDICINES FOR TREATMENT OF DISEASE” (Chapman University, priority 2022, published 2024)
“Also recorded” adds a separate entry of the source.

Tests used:
polycystic kidneys = conditions: literature; cited from earlier work
ADPKD cells = experiment: 3D cyst culture in Matrigel/collagen with forskolin and EGF; format: cell-based, human; conditions: 3D culture, treatment from day 1, evaluated on day 6
Experimental: FIGS. 2A-C depict functional nanoparticle-targeting in 3-dimensional culture. FIG. 2A: Human renal epithelia from normal kidney (NK) cells and autosomal dominant polycystic kidney disease (ADPKD) were grown to form cysts in a 3D Matrigel system with collagen in the presence of forskolin and EGF for 1 day followed by different treatments for 5 additional days. All representative live DIC and fluorescence images were taken at 6 days. Control treatment was denoted as vehicle (saline-only). 3D non-cyst/cyst cultures were imaged for nanoparticles uptake, cyst formation and cysts size measurements. The inset images at the right showing the enlarged cystic area taken from the white square boxes selected from the images at the left. Scale bar, 200 μm. FIG. 2B: Percent number of cysts were measured and plotted in bar graphs; each point represents an averaged of replicate.
3D cyst culture and live imaging. […] To assess the effects of vehicle (saline) and different plain and drug-loaded nanoparticles (1 mg/mL) were added (10 μL) on day one after stimulation with forskolin and cyst formation were evaluated on day 6. The cyst growth was observed by using Nikon live cell microscope using its DIC and fluorescence capabilities. […] Using ×20 lens, the number of cysts and their sizes (in diameter) in each well was counted and measured using an ocular scale from the Nikon Eclipse Imaging Software. […]

[1] = Drug release from NPs by dialysis and HPLC; format: physicochemical; conditions: monitored over a 7-day period; growth media with serum
Excerpt: FIGS. 1A-I depict synthesis and characterization of polycystic kidney targeted nanoparticles. FIG. 1A: Schematic representation of synthesis, drug loading and surface functionalization of PLGA nanoparticles. FIG. 1B: The morphological features of the plain (unloaded) and drugs-loaded PLGA nanoparticles were imaged with scanning electron microscopy. Scale bars, 200 nm. FIG. 1C: Hydrodynamic size distribution of unloaded and drugs-loaded nanoparticles. FIG. 1D: Average zeta-potential measurements of unloaded and drugs-loaded nanoparticles. FIG. 1E: Average hydrodynamic size stability measurements of nanoparticles in saline (PBS), mouse plasma and growth media (DMEM) containing fetal bovine serum. […]
For both rapamycin and 4-hydoxy-TEMPO encapsulated nanoparticles (RapaTEMPO-NPs) were synthesized by a combination (1000 mg) and rapamycin (20 mg) and 4-hydoxy-TEMPO (20 mg) (polymer to total drug ratio […]) was chosen. […] XPS spectra of the samples were recorded on a Kratos Analytical AXIS Supra system with a monochromated Al/Ag X-ray source (Al target). Total survey spectra were recorded in a range from 1300 to −5 eV binding energy (dwell time 200 ms, step size 1 eV, 2 sweeps), and all the region scans were conducted with suitable ranges (dwell time 500 ms, step size 0.05 eV and 5 sweeps). […]

Pkd2 mice [2] = experiment: CT imaging of total kidney volume; format: in vivo; conditions: CT at 3, 6 and 9 weeks
Experimental: FIGS. 20A-C. FIGS. 20A-B depict coronal and trans-axial CT imaging of mice at 3, 6 and 9 weeks of treatment time. FIG. 20C: Plots showing the total kidney volume at 3, 6 and 9 weeks of treatment time.
Because RapaTEMPO-NPs were applied prior to severe cystic development in the kidneys, lateral (FIG. 20A) and cross-section (FIG. 20B) of computerized tomography scans were performed in the kidneys at 3-, 6- and 9-weeks to monitor progression of changes in kidney volume. […] Longitudinal effects on blood pressure were also monitored throughout the treatment period (FIG. 21). The increase in blood pressure in kidney-specific Pkd2 seemed to be associated with expansion of renal cysts leading to compression in renal vasculature and eventual RAAS activation.

[3] = Drug loading of NPs quantified by HPLC; format: physicochemical; conditions: loading into PLGA nanoparticles
Experimental: For both rapamycin and 4-hydoxy-TEMPO encapsulated nanoparticles (RapaTEMPO-NPs) were synthesized by a combination (1000 mg) and rapamycin (20 mg) and 4-hydoxy-TEMPO (20 mg) (polymer to total drug ratio […]) was chosen. Also, 50 mg of 3,3′-diethylthiadicarbocyanine iodide (Cy5, 680 fluorescent emission agent) was dissolved in 20 mL of DMSO. The mixture was then added into the dispersing phase (40 mL of water with 1.2 mL of 10% Pluronic F-68) dropwise under moderate magnetic stirring (500 rpm, 1 h). For size and shape measurements, synthesized nanomaterials were examined by SEM using a TESCAN GAIA-3 XMH integrated focused ion beam-FESEM electron microscope. […] XPS spectra of the samples were recorded on a Kratos Analytical AXIS Supra system with a monochromated Al/Ag X-ray source (Al target). Total survey spectra were recorded in a range from 1300 to −5 eV binding energy (dwell time 200 ms, step size 1 eV, 2 sweeps), and all the region scans were conducted with suitable ranges (dwell time 500 ms, step size 0.05 eV and 5 sweeps). The FTIR spectra were recorded using a Bruker ALPHA (Platinum-ATR) spectrometer in the diffuse reflectance mode at a resolution of 4 cm^−1. The rapamycin and 4-yydoxy-TEMPO loading efficiencies were quantified by High-Performance Liquid Chromatography (HPLC; SHIMADZU). […]

mTOR signaling pathway = experiment: Immunoblotting of p-S6K and p-S6 in kidney lysates; format: in vivo, mice; conditions: end of 9 weeks of therapy
Experimental: Drug-NPs were administered intravenously once, while drug-only was intravenously injected daily. N=5. […] Total-S6K (t-S6K), total-S6 (t-S6) and equal loading control (GAPDH). N=3. FIG. 4C: Immunoblot data for p-S6K in bar graphs. […] Statistical analysis was performed using ANOVA followed by Tukey's multiple comparison test.
Immunoblotting. After the completion of in-life studies, mice treated with the different control, plain and drug-loaded nanoparticles were euthanized, and the kidneys were collected and rinsed with PBS. Approximately 100 mg of tissue samples were placed in RIPA buffer supplemented with Complete Protease Inhibitor (MedChemExpress). […] Samples were then centrifuged at 20 000 rpm for 15 min, and the supernatants were collected and subjected to protein quantification. The PAGE (polyacrylamide gel electrophoresis) on 8-10% SDS gels was performed, followed by semi-dry transfer to PVDF membranes using a Bio-Rad Trans-Blot (Turbo Transfer) machine and detection using antibodies against p-S6 (1:000), p-S6K (1:1000), t-S6 (1:2000), t-S6K (1:2000) and GAPDH (1:1,000) (Cell Signaling Technology). Blots were scanned with both calorimetries to image molecular markers and chemiluminescence to capture the protein signal intensity using a BioRad Gel-doc imaging system.

Pkd2 mice [4] = experiment: 9-week treatment of Pkd2 mice: body weight, survival, cysts, fibrosis, kidney fluorescence; conditions: long-term use, drug-alone 1 mg/kg i.v. daily
Excerpt: FIG. 5A: Kidney comparison of wild-type (WT) and Pkd2 kidneys after 9-weeks of treatment. Color, brightfield, fluorescent images were captured consecutively. The hematoxylin and eosin (H&E) sections were obtained from the same corresponding kidneys.
FIG. 5B: Fluorescence intensity measurements from isolated kidneys were normalized to total kidney volume (TKV). […] FIG. 5D: Total kidney weight measurement. FIG. 5D. Percent weight ratio of 2 kidneys to body weight (2 KW/BW). FIG. 5F: Total cyst number calculated using H&E staining. FIG. 5G: Kaplan-Meier survival curves analyzed with Log-rank test. N=5 for all experiments. *P<0.05, **P<0.01, ***P<0.001, ****P<0.0001 compared to wild-type vehicle. #P<0.05, ##P<0.01, #44P<0.001, #44t #P<0.0001 compared to Pkd2 vehicle. Statistical analysis was performed using ANOVA followed by Tukey's multiple comparison test.
Animal studies. […] All animal experimentation was conducted as double-blinded operators to disregard biases and critical analyses. All control (KspCre·Pkd2^WT/WT) and PKD (KspCre·Pkd2^flox/flox) non-inducible mice models were obtained from the Jackson Laboratory and Harvard Medical School.
Histology Studies. Sections of the mouse visceral organs (hearts, kidneys, livers, spleens, and lung)s, were collected and subjected to hematoxylin and eosin (H&E) staining by starting the tissue fixation using 10% formalin. Then, the tissues were dehydrated in buffered formalin, ethanol, and xylene. Finally, the tissues were embedded in liquid paraffin, sectioned (5 μm), and stained with H&E for histological examinations. The pathology slices were observed and imaged using a KEYENCE BZ-X710 microscope. Mouse normal and polycystic kidney sections were stained with Masson's trichrome to detect fibrosis using a Masson's Trichrome Stain Kit (Polysciences, Inc.).
Throughout the studies, KspCre·Pkd2^WT/WT and KspCre·Pkd2^flox/flox mouse models were used and are respectively referred to wild-type and Pkd2 mice henceforth.

Compound | Kidney injury and fibrosis (polycystic kidneys) | Cyst number and size (ADPKD cells) | Time of maximum drug release from NPs [1] | Total kidney volume over treatment time (Pkd2 mice [2]) | Drug loading, weight ratio drug/NPs [3] [%] | Effect on levels of phosphorylation of S6K and S6 (mTOR signaling pathway) | Body weight (Pkd2 mice [4]) | Body weight (Pkd2 mice [4]; listed as rapamycin-alone)
CC1(C)CC(O)CC(C)(C)N1[O] [4-hydroxy-[2,2,6,6-tetramethylpiperidin-1-yl]oxidanyl] | alleviate kidney injury and fibrosis by reducing renal superoxide | some effect | about 3 days | no effect in kidney volume expansion | 34.7±3.1 | minimal effect |  | 
CO[C@H]1C[C@@H]2CC[C@@H](C)[C@@](O)(O2)C(=O)C(=O)N2CCCC[C@H]2C(=O)O[C@H]([C@H](C)C[C@@H]2CC[C@@H](O)[C@H](OC)C2)CC(=O)[C@H](C)/C=C(\C)[C@@H](O)[C@@H](OC)C(=O)[C@H](C)C[C@H](C)/C=C/C=C/C=C/1C [rapamycin] |  |  |  |  |  |  | reduced | significantly lowered the body weight; also recorded: nor reduces the impediment in body weight gain
